Results on 21 molecules are retold here after US20090099195A1 (ASTRAZENECA AB, priority 2007, published 2009).

The target in this test is T1, hP2X3 (human Purinergic P2X receptors subtype 3), clone B (Homo sapiens, UniProt P56373).
T1 sequence (P56373 1-397): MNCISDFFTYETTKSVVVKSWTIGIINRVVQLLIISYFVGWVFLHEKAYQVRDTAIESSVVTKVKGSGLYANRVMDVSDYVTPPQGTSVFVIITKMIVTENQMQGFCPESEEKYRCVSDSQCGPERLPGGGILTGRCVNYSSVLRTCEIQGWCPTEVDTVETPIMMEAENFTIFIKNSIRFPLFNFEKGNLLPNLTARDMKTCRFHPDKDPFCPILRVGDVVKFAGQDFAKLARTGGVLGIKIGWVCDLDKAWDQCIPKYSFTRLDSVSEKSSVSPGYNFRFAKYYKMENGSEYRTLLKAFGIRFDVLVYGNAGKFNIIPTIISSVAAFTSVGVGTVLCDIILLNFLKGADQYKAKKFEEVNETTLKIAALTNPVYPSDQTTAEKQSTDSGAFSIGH
The experiment in a line: hP2X3 FLIPR calcium (Fluo-4) antagonist assay, clone B. The settings on record: Human P2X3 FLIPR Clone B IC50 (nM), RLE cells expressing hP2X3 clone B (NM_002559); agonist 500 nM α,β-methylene-ATP.
`COc1ccc(CNc2nc(N3CCN(C(C)=O)CC3)nc3c2CN(C(C)C)C3=O)c2cccnc12` [Example 240, 2-(4-acetylpiperazin-1-yl)-6-isopropyl-4-((8-methoxyquinolin-5-yl)methylamino)-5H-pyrrolo[3,4-d]pyrimidin-7(6H)-one]: the 50% inhibitory concentration (IC50) turned out to be 1500 nM.
The figure for `CC(=O)N1CCN(c2nc(N[C@H](C)c3ccc(Cl)c(C(F)(F)F)c3)c3c(n2)C(=O)N(C(C)C)C3)CC1` [Example 171, (R)-2-(4-acetylpiperazin-1-yl)-4-(1-(4-chloro-3-(trifluoromethyl)phenyl)ethylamino)-6-isopropyl-5H-pyrrolo[3,4-d]pyrimidin-7(6H)-one] is 290 nM; for `CC(=O)N1CCN(c2nc3c(c(N4CCCC4c4cccc(C)c4)n2)CN(C(C)C)C3=O)CC1` (stereo not drawn) [Example 269, 4-(4-acetylpiperazin-1-yl)-2-[2-(3-methylphenyl)pyrrolidin-1-yl]-8-propan-2-yl-3,5,8-triazabicyclo[4.3.0]nona-2,4,10-trien-7-one] it is 740 nM.
Consider `CC(=O)NCCNc1nc(NC(c2ccccc2)c2ccccc2)c2c(n1)C(=O)N(C(C)C)C2` [Example 93, N-{2-[4-(Benzhydryl-amino)-6-isopropyl-7-oxo-6,7-dihydro-5H-pyrrolo[3,4-d]pyrimidin-2-ylamino]-ethyl}-acetamide], for which the IC50 stood at 290 nM.
Then `CC(=O)N(Cc1cc2ccccc2cn1)c1nc(N2CCN(C(C)=O)[C@H](C)C2)nc2c1CN(C(C)C)C2=O` [Example 326, (R)—N-(2-(4-acetyl-3-methylpiperazin-1-yl)-6-isopropyl-7-oxo-6,7-dihydro-5H-pyrrolo[3,4-d]pyrimidin-4-yl)-N-(isoquinolin-3-ylmethyl)acetamide], with 590 nM; and `CC(=O)N1CCN(c2nc(NCc3ccc4ccccc4n3)c3c(n2)C(=O)N(C(C)C)C3)CC1` [Example 248, 2-(4-acetylpiperazin-1-yl)-6-isopropyl-4-(quinolin-2-ylmethylamino)-5H-pyrrolo[3,4-d]pyrimidin-7(6H)-one], with 6300 nM; and `CC(C)N1Cc2c(NCc3cnc4ccccc4c3)nc(N3CCC(N(C)C)C3)nc2C1=O` (stereo not drawn) [Example 213, 2-(3-dimethylaminopyrrolidin-1-yl)-6-isopropyl-4-(3-quinolylmethylamino)-5H-pyrrolo[3,4-d]pyrimidin-7-one], with 1100 nM.
In the case of `CC(C)N1Cc2c(NC(c3ccccc3)c3ccccc3)nc(NCc3ccccc3)nc2C1=O` [Example 84, 4-(Benzhydryl-amino)-2-benzylamino-6-isopropyl-5,6-dihydro-pyrrolo[3,4-d]pyrimidin-7-one], the 50% inhibitory concentration (IC50) came to 830 nM.
With `CC(C)N1Cc2c(NC(c3ccccc3)c3ccccc3)nc(NCc3cccnc3)nc2C1=O` [Example 94, 4-(Benzhydryl-amino)-6-isopropyl-2-[(pyridin-3-ylmethyl)-amino]-5,6-dihydro-pyrrolo[3,4-d]pyrimidin-7-one], the IC50 is 250 nM.
The figure for `CCN1CCN(c2nc(NC(C)(C)Cc3ccc(Cl)cc3)c3c(n2)C(=O)N(C(C)C)C3)CC1` [Example 64, 4-{[2-(4-chlorophenyl)-1,1-dimethylethyl]amino}-2-(4-ethylpiperazin-1-yl)-6-isopropyl-5,6-dihydro-7H-pyrrolo[3,4-d]pyrimidin-7-one] is 3500 nM; for `CC(C)N1Cc2c(NC3c4cc(F)ccc4CCc4ncccc43)nc(NCCN(C)C)nc2C1=O` (stereo not drawn) [Example 22, 2-{[2-(dimethylamino)ethyl]amino}-4-[(7-fluoro-10,11-dihydro-5H-benzo[4,5]cyclohepta[1,2-b]pyridin-5-yl)amino]-6-isopropyl-5,6-dihydro-7H-pyrrolo[3,4-d]pyrimidin-7-one] it is 270 nM.
In the case of `CCC(=O)N1CCN(c2nc(NC(c3ccccc3)c3ccccc3)c3c(n2)C(=O)N(C(C)C)C3)CC1` [Example 87, 4-(Benzhydryl-amino)-6-isopropyl-2-(4-propionyl-piperazin-1-yl)-5,6-dihydro-pyrrolo[3,4-d]pyrimidin-7-one], the half-maximal inhibitory concentration (IC50) turned out to be 240 nM.
Consider `CC(=O)N1CCN(c2nc(NC(C)(C)Cc3ccc(F)cc3)c3c(n2)C(=O)N(C(C)C)C3)C(C)C1` (stereo not drawn) [Example 139, 2-(4-Acetyl-2-methyl-piperazin-1-yl)-4-[2-(4-fluoro-phenyl)-1,1-dimethyl-ethylamino]-6-isopropyl-5,6-dihydro-pyrrolo[3,4-d]pyrimidin-7-one], for which the concentration for half-maximal inhibition (IC50) amounted to 1000 nM.
Then `CC(=O)N1CCN(c2nc(NC(C)C3COc4ccccc4O3)c3c(n2)C(=O)N(C(C)C)C3)CC1` (single isomer, unassigned) [Example 178, 2-(4-acetylpiperazin-1-yl)-4-(1-(2,3-dihydrobenzo[b][1,4]dioxin-2-yl)ethylamino)-6-isopropyl-5H-pyrrolo[3,4-d]pyrimidin-7(6H)-one], with 970 nM; and `CC(C)N1Cc2c(NCc3cnc4ccccc4c3)nc(N(C)CC3CCCO3)nc2C1=O` (stereo not drawn) [Example 217, 6-isopropyl-2-(methyl-(tetrahydrofuran-2-ylmethyl)amino)-4-(3-quinolylmethylamino)-5H-pyrrolo[3,4-d]pyrimidin-7-one], with 5900 nM.
The figure for `CC(=O)N1CCN(c2nc(NCc3cn(C4CCCC4)nc3C)c3c(n2)C(=O)N(C(C)C)C3)CC1` [Example 152, 4-(4-acetylpiperazin-1-yl)-2-[(1-cyclopentyl-3-methyl-pyrazol-4-yl)methylamino]-8-propan-2-yl-3,5,8-triazabicyclo[4.3.0]nona-2,4,10-trien-7-one] is 270 nM; for `CC(=O)N1CCN(c2nc(NCc3ccc4c(c3)CCCN4C)c3c(n2)C(=O)N(C(C)C)C3)CC1` [Example 38, 2-(4-acetylpiperazin-1-yl)-6-isopropyl-4-{[(1-methyl-1,2,3,4-tetrahydroquinolin-6-yl)methyl]amino}-5,6-dihydro-7H-pyrrolo[3,4-d]pyrimidin-7-one] it is 12000 nM.
The figure for `CC(=O)N1CCN(c2nc3c(c(N(C)Cc4ccc(Cl)cc4)n2)CN(C(C)C)C3=O)CC1` [Example 111, 2-(4-acetylpiperazin-1-yl)-4-[(4-chlorobenzyl)(methyl)amino]-6-isopropyl-5,6-dihydro-7H-pyrrolo[3,4-d]pyrimidin-7-one] is 9000 nM; for `CC(=O)N1CCN(c2nc(NC(C)c3ccc(C(F)(F)F)cc3)c3c(n2)C(=O)N(C(C)C)C3)CC1` (stereo not drawn) [Example 28, 2-(4-acetylpiperazin-1-yl)-6-isopropyl-4-({1-[4-(trifluoromethyl)phenyl]ethyl}amino)-5,6-dihydro-7H-pyrrolo[3,4-d]pyrimidin-7-one] it is 200 nM; for `CCC(C)N1Cc2c(NCc3cnc4ccccc4c3)nc(N3CCN(C(C)=O)CC3)nc2C1=O` (single isomer, unassigned; (-)) [Example 309, (−)-2-(4-acetylpiperazin-1-yl)-4-(3-quinolylmethylamino)-6-sec-butyl-5H-pyrrolo[3,4-d]pyrimidin-7-one] it is 42 nM.
For the molecule `CC(C)N1Cc2c(NCc3cnc4ccccc4c3)nc(N3CCCC3CN3CCOCC3)nc2C1=O` (stereo not drawn) [Example 212, 6-isopropyl-2-[2-(morpholinomethyl)pyrrolidin-1-yl]-4-(3-quinolylmethylamino)-5H-pyrrolo[3,4-d]pyrimidin-7-one], the IC50 was 4600 nM.
